Measurements taken from US10711011B2, “Substituted oxazolidines as anti-bacterial agents” (BUGWORKS RESEARCH, INC., priority 2016, dated 2020).
Values after ≈ are worked out from the molar mass of the structure shown. Where two headings read alike, the source gives them in different places.

Key:
[1] = system: E. faecalis ATCC 29212; assay: Minimum Inhibitory Concentration (MIC) in LB media; format: cell-based, Enterococcus faecalis; conditions: Enterococcus faecalis, ATCC29212
Source text: (§1) The compounds of Formula I are of interest due to their potent antibacterial effects. The ability of the invention compounds disclosed herein to achieve an antibacterial effect may be evaluated with regard to their ability to inhibit the growth of bacterial species like Escherichia coli ATCC 25922, Staphylococcus aureus ATCC 29213, Klebsiella pneumoniae ATCC 13883, Acinetobacter baumannii ATCC 19606, Pseudomonas aurigenosa ATCC 27853, Enterococcus faecalis ATCC 29212 and Enterococcus faecalis ATCC 29212 using an assay based on the following Minimum Inhibitory Concentration (MIC) protocol:
(§2) The test bacteria are grown in Luria Bertani Broth (HIMEDIA M1245), 25 grams of the powder is dissolved in 1000 ml distilled water and sterilized by autoclaving at 15 lbs pressure (121° C.) for 20 minutes. The medium sterility is checked by incubating at 37° C. for a period of 48 h.
(§3) Bacterial cultures that are stored as glycerol stocks at −80° C. are sub cultured on LB agar plates to obtain isolated colonies. A single colony of each strain is cultured in LB broth. The cultures are incubated at 37° C., 200 rpm till they reach an optical density (OD at 600 nm) of 0.8 to 1. […] Test compounds are dissolved in dimethyl sulfoxide (DMSO) to a stock concentration of 4 mg/ml. A twofold dilution series of this DMSO stock is prepared in a 96 well V bottom microtitre plate from rows A to H. A 3 μL volume of these dilutions are transferred to a 96-well flat bottom microtitre assay plate. Controls to monitor the effects of DMSO and media sterility are included. Each well is inoculated with 150 μL of the above diluted culture. The plates are incubated at 37° C. overnight in a humidified incubator. The following morning, the plates are read using a Spectrophotometer at 600 nm wavelength. […] The antibacterial activity (MIC) determined against representative Gram positive (S. aureus, E. faecalis) and Gram negative (E. coli, P. aurigenosa, K. pneumoniae and A. baumannii) pathogen were reported Table 1.

[2] = system: E. coli ATCC 25922; assay: Minimum Inhibitory Concentration (MIC) in LB media; format: cell-based, Escherichia coli; conditions: Escherichia coli, ATCC25922, LB Media
Source text: as §1, §2, §3

[3] = Mouse oral pharmacokinetics; format: in vivo, BALB/c mice; set-up: AUC/Dose: unit not given beside the values; conditions: for Cmax/dose: in (µg/mL)/(mg/kg)
Description: To assess the Oral and Intravenous pharmacokinetic profile of Example 13, pharmacokinetics (PK) of Example 13 was characterized in BALB/c mice following single intravenous (i.v.) dose of 2 mg/kg and single escalating oral doses of 2, 10, 50 and 100 mg/kg, respectively. This study was performed following all ethical practices as laid down in the guidelines for animal care (Registration number No. 1852/PO/Rc/S/16/CPCSEA). The study was approved by the Institutional Animals Ethics Committee (IAEC) of the test facility. For IVPK in BALB/c mice, the formulation used was DMSO: PEG400: Ethanol: Water (10:20:10:60 v/v) and Example 13 administered as solution. For POPK, the formulation used was 0.1% Tween80 in 0.25% CMC and Example 13 administered as suspension through an oral gavage. The plasma (mice) samples were analyzed by LC-MS/MS. PK parameters were estimated by non-compartmental analysis in Phoenix WinNonlin 6.4 The results of the per-oral and intravenous PK study of Example 13 are presented in Table 4 and 5

[4] = BALB/c, mouse, plasma, mice, single oral dose 2 mg/kg
[5] = BALB/c, mouse, plasma, mice, single oral dose 10 mg/kg
[6] = BALB/c, mouse, plasma, mice, single oral dose 50 mg/kg
[7] = BALB/c, mouse, plasma, mice, single oral dose 100 mg/kg
[8] = mice, single oral dose 10 mg/kg
[9] = mice, single oral dose 50 mg/kg
[10] = mice, single oral dose 100 mg/kg

Work on `CN1C(=O)Cc2ccc(F)c(CCNCCC3CN(c4ccc5c(n4)NC(=O)CO5)C(=O)O3)c21` (single isomer, unassigned) [Example 13, 6-(5-(2-((2-(6-fluoro-1-methyl-2-oxoindolin-7-yl)ethyl)amino)ethyl)-2-oxooxazolidin-3-yl)-2H-pyrido[3,2-b][1,4]oxazin-3(4H)-one] yielded an MIC [1] of 0.25 µg/mL (≈ 0.533 µM), an MIC [2] of 0.06 µg/mL (≈ 0.128 µM) and a Cmax ([3]; BALB/c, mouse, plasma, po, 2 mg/kg, mice, single oral dose 2 mg/kg) of 6 ng/mL. The AUC(0-inf) ([3]; BALB/c, mouse, plasma, po, 2 mg/kg, mice, single oral dose 2 mg/kg, read-out: AUC0-∞) was 70 ng·h/mL, the half-life ([3]; BALB/c, mouse, plasma, po, 2 mg/kg, mice, single oral dose 2 mg/kg, read-out: t1/2 (converted)) was 5.63 h and the Cmax ([3]; BALB/c, mouse, plasma, po, 10 mg/kg, mice, single oral dose 10 mg/kg) was 108 ng/mL. It also gave an AUC(0-inf) ([3]; BALB/c, mouse, plasma, po, 10 mg/kg, mice, single oral dose 10 mg/kg, read-out: AUC0-∞) of 335 ng·h/mL, a half-life ([3]; BALB/c, mouse, plasma, po, 10 mg/kg, mice, single oral dose 10 mg/kg, read-out: t1/2 (converted)) of 2.13 h and a Cmax ([3]; BALB/c, mouse, plasma, po, 50 mg/kg, mice, single oral dose 50 mg/kg) of 740 ng/mL. For the same molecule, the AUC(0-inf) ([3]; BALB/c, mouse, plasma, po, 50 mg/kg, mice, single oral dose 50 mg/kg, read-out: AUC0-∞) was 1970 ng·h/mL, the half-life ([3]; BALB/c, mouse, plasma, po, 50 mg/kg, mice, single oral dose 50 mg/kg, read-out: t1/2 (converted)) was 1.6 h and the AUC(0-inf) ([3]; BALB/c, mouse, plasma, po, 100 mg/kg, BALB/c mice, single oral doses of 2, 10, 50 and 100 mg/kg, read-out: AUC0-∞, range over oral doses) was 70 to 4820 ng·h/mL. It also gave a Clast ([3]; BALB/c, mouse, plasma, po, 100 mg/kg, BALB/c mice, single oral doses of 2, 10, 50 and 100 mg/kg, read-out: Cmax, range over oral doses) of 4 to 72 ng/mL, a half-life ([3]; BALB/c, mouse, plasma, po, 100 mg/kg, BALB/c mice, single oral doses of 2, 10, 50 and 100 mg/kg, read-out: t1/2, range over oral doses) of 1.4 to 5.6 h and a Cmax ([3]; BALB/c, mouse, plasma, po, 100 mg/kg, mice, single oral dose 100 mg/kg) of 2380 ng/mL. It also gave an AUC(0-inf) ([3]; BALB/c, mouse, plasma, po, 100 mg/kg, mice, single oral dose 100 mg/kg, read-out: AUC0-∞) of 4820 ng·h/mL, a half-life ([3]; BALB/c, mouse, plasma, po, 100 mg/kg, mice, single oral dose 100 mg/kg, read-out: t1/2 (converted)) of 1.42 h and an AUC(0-t) [3, 4] of 70 ng·h/mL. For the same molecule, the Tmax [3, 4] was 1 h, the concentration at 24 h ([3]; BALB/c, mouse, plasma, mice, single oral dose 2 mg/kg, read-out: Clast) was 4 ng/mL and the AUC(0-t) [3, 5] was 311 ng·h/mL. For the same molecule, the Tmax [3, 5] was 0.5 h, the concentration at 8 h ([3]; BALB/c, mouse, plasma, mice, single oral dose 10 mg/kg, read-out: Clast) was 9 ng/mL and the AUC(0-t) [3, 6] was 1900 ng·h/mL. For the same molecule, the Tmax [3, 6] was 0.5 h, the concentration at 8 h ([3]; BALB/c, mouse, plasma, mice, single oral dose 50 mg/kg, read-out: Clast) was 28 ng/mL and the AUC(0-t) [3, 7] was 4700 ng·h/mL. The Tmax [3, 7] was 1 h, the concentration at 8 h ([3]; BALB/c, mouse, plasma, mice, single oral dose 100 mg/kg, read-out: Clast) was 72 ng/mL and the AUC/Dose ([3]; mice, single oral dose 2 mg/kg) was 0.036. The F ([3]; mice, single oral dose 2 mg/kg) was 20.6%, the Ke ([3]; mice, single oral dose 2 mg/kg) was 0.123 h⁻¹ and the Tlast ([3]; mice, single oral dose 2 mg/kg) was 24 h. For the same molecule, the Cmax/dose ([3]; mice, single oral dose 2 mg/kg) was 0.003, the AUC/Dose [3, 8] was 0.034 and the F [3, 8] was 19.0%. The Ke [3, 8] was 0.325 h⁻¹, the Tlast [3, 8] was 8 h and the Cmax/dose [3, 8] was 0.011. It also gave an AUC/Dose [3, 9] of 0.039, an F [3, 9] of 22.3% and a Ke [3, 9] of 0.433 h⁻¹. It also gave a Tlast [3, 9] of 8 h, a Cmax/dose [3, 9] of 0.015 and an AUC/Dose [3, 10] of 0.048. The F [3, 10] was 27.4%, the Ke [3, 10] was 0.489 h⁻¹ and the Tlast [3, 10] was 8 h. It also gave a Cmax/dose [3, 10] of 0.024 and a bioavailability ([3]; mouse, plasma, BALB/c mice, single oral doses of 2, 10, 50 and 100 mg/kg, read-out: oral bioavailability, range over oral doses) of 19 to 27%.
